In data set [1] the target is T1, hCA I (Homo sapiens, UniProt P00915).
T1 construct: made in house
As to the kind of experiment: stopped flow CO2 hydrase assay, hCA I. It is filed as biochemical. The following applies: recombinant cytosolic isoform; mean from 3 different assays, errors ±5–10%. The method, then: (§1) The newly synthesized imidazo[2,1-b]thiazole-sulfonyl piperazines (9aa-ee) were screened for their CA inhibition activity against cytosolic (hCA I, hCA II) and the tumor associated (hCA IX, hCAXII) isoforms by a stopped flow CO2 hydrase assay.
(§2) The inhibition assay of selected CA isozymes was performed using SX.18V-R Applied Photophysics (Oxford, UK) stopped flow instrument. 10 mM Hepes (pH 7.4) as a buffer, with Phenol Red (at a concentration of 0.2 mM) as an indicator, 0.1M Na2SO4 or NaClO4 (To maintain the constant ionic strength; these anions are not inhibitory in the used concentration), following the CA-catalyzed CO2 hydration reaction for a period of 5–10 s. […] Stock solutions of inhibitors were prepared at a concentration of 10 mM (in DMSO-water 1:1 v/v) and dilutions up to 0.01 nM done with the assay buffer mentioned above. […] Inhibitor and enzyme solutions were pre-incubated together for 10 min at room temperature prior to assay, in order to allow for the formation of the E-I complex. […] The inhibition constants were obtained by non-linear least square methods using the Cheng-Prusoff equation, as reported earlier, [24, 25] and represent the mean from at least three different determinations. All CA isozymes used here were recombinant proteins obtained as reported earlier by our group.

Data set [2] concerns the target T2, hCA XII (Homo sapiens, UniProt O43570).
T2 construct: made in house
As to the kind of experiment: stopped flow CO2 hydrase assay, hCA XII. Type of data set: biochemical. The following applies: recombinant tumor associated isoform; mean from 3 different assays, errors ±5–10%. The method, then: as §1, §2

For data set [3], the target named is T3, hCA IX (Homo sapiens, UniProt Q16790).
T3 construct: made in house
Briefly: stopped flow CO2 hydrase assay, hCA IX. Type of data set: biochemical. The following applies: recombinant tumor associated isoform; mean from 3 different assays, errors ±5–10%. The method, then:
as §1, §2

Data set [4] addresses T4, hCA II (Homo sapiens, UniProt P00918).
T4 construct: made in house
As to the kind of experiment: stopped flow CO2 hydrase assay, hCA II. It is filed as biochemical. As to conditions: recombinant cytosolic isoform; mean from 3 different assays, errors ±5–10%. The method, then: as §1, §2

Here are results for 19 molecules from article PMC7240968, “Synthesis and Biological Evaluation of Imidazo[2,1-b]Thiazole based Sulfonyl Piperazines as Novel Carbonic Anhydrase II Inhibitors” (Metabolites, 2020).

T2 sequence (O43570 25-354): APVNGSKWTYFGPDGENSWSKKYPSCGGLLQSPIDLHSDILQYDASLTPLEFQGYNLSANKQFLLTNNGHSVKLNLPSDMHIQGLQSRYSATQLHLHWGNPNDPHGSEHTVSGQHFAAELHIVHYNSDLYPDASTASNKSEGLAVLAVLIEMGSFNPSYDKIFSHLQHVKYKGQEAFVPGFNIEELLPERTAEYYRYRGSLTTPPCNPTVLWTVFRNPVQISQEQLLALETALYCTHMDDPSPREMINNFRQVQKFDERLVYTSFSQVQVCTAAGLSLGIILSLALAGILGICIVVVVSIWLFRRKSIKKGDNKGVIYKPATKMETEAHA
T1 sequence (P00915 whole entry): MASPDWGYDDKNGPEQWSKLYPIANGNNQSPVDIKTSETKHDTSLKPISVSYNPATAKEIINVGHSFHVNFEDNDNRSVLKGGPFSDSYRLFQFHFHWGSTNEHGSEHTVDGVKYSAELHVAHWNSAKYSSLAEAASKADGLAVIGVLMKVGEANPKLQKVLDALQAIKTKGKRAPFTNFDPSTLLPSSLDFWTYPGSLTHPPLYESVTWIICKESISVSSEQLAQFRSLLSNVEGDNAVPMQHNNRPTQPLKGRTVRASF

The Ki is the dissociation constant of the complex between target and ligand, obtained from inhibition or displacement. Turning to “(5-(4-Fluorophenyl)imidazo[2,1-b]thiazol-2-yl)(4-((4-methoxyphenyl)sulfonyl)piperazin-1-yl)methanone [Compound 9da]”, the Ki is greater than 100 µM in data set [1], greater than 100 µM in data set [2], greater than 100 µM in data set [3] and 67.9 µM in data set [4].

In the case of “(4-((4-Methoxyphenyl)sulfonyl)piperazin-1-yl)(5-phenylimidazo[2,1-b]thiazol-2-yl)methanone [Compound 9ea]”, the Ki in data set [1], in data set [2], in data set [3] and in data set [4] was greater than 100 µM each time.

As to “(5-(4-Chlorophenyl)imidazo[2,1-b]thiazol-2-yl)(4-tosylpiperazin-1-yl)methanone [Compound 9cb]”, the Ki in data set [1], in data set [2], in data set [3] and in data set [4] was greater than 100 µM in each case.

“(4-((4-(Tert-butyl)phenyl)sulfonyl)piperazin-1-yl)(5-(4-chlorophenyl)imidazo[2,1-b]thiazol-2-yl)methanone [Compound 9ce]”: the Ki in data set [1] was greater than 100 µM; in data set [2] it was greater than 100 µM; in data set [3], greater than 100 µM; in data set [4], 62.1 µM.

As for “(4-((4-(Tert-butyl)phenyl)sulfonyl)piperazin-1-yl)(5-(4-fluorophenyl)imidazo[2,1-b]thiazol-2-yl)methanone [Compound 9de]”, the Ki in data set [1], in data set [2], in data set [3] and in data set [4] was greater than 100 µM each time.

For the molecule “(4-((4-Chlorophenyl)sulfonyl)piperazin-1-yl)(5-phenylimidazo[2,1-b]thiazol-2-yl)methanone [Compound 9ec]”, the Ki in data set [1], in data set [2], in data set [3] and in data set [4] was greater than 100 µM throughout.

Regarding “(5-(4-Methoxyphenyl)imidazo[2,1-b]thiazol-2-yl)(4-(phenylsulfonyl)piperazin-1-yl)methanone [Compound 9ad]”, the Ki in data set [1], in data set [2], in data set [3] and in data set [4] was greater than 100 µM in each case.

Consider “(5-Phenylimidazo[2,1-b]thiazol-2-yl)(4-tosylpiperazin-1-yl)methanone [Compound 9eb]”, for which the Ki in data set [1], in data set [2], in data set [3] and in data set [4] was greater than 100 µM each time.

Regarding “(5-(4-Methoxyphenyl)imidazo[2,1-b]thiazol-2-yl)(4-((4-methoxyphenyl)sulfonyl)piperazin-1-yl)methanone [Compound 9aa]”, the inhibitory constant (Ki) in data set [1], in data set [2], in data set [3] and in data set [4] was greater than 100 µM in each case.

Turning to “(5-(4-Chlorophenyl)imidazo[2,1-b]thiazol-2-yl)(4-(phenylsulfonyl)piperazin-1-yl)methanone [Compound 9cd]”, the Ki in data set [1] was greater than 100 µM; in data set [2], greater than 100 µM; in data set [3], greater than 100 µM; in data set [4], 71.2 µM.

With “(5-(4-Fluorophenyl)imidazo[2,1-b]thiazol-2-yl)(4-tosylpiperazin-1-yl)methanone [Compound 9db]”, the Ki in data set [1], in data set [2], in data set [3] and in data set [4] was greater than 100 µM in each case.

In the case of “(5-Phenylimidazo[2,1-b]thiazol-2-yl)(4-(phenylsulfonyl)piperazin-1-yl)methanone [Compound 9ed]”, the Ki in data set [1], in data set [2], in data set [3] and in data set [4] was greater than 100 µM in each case.

For “(5-(p-Tolyl)imidazo[2,1-b]thiazol-2-yl)(4-tosylpiperazin-1-yl)methanone [Compound 9bb]”, the Ki in data set [1] was greater than 100 µM; in data set [2], greater than 100 µM; in data set [3] it was greater than 100 µM; in data set [4], 76.4 µM.

Regarding “(5-(4-Chlorophenyl)imidazo[2,1-b]thiazol-2-yl)(4-((4-methoxyphenyl)sulfonyl)piperazin-1-yl)methanone [Compound 9ca]”, the Ki was greater than 100 µM in data set [1], greater than 100 µM in data set [2], greater than 100 µM in data set [3] and 79.9 µM in data set [4].

“(5-(4-Chlorophenyl)imidazo[2,1-b]thiazol-2-yl)(4-((4-chlorophenyl)sulfonyl)piperazin-1-yl)methanone [Compound 9cc]”: the Ki in data set [1] is greater than 100 µM; in data set [2] it was greater than 100 µM; in data set [3] it was greater than 100 µM; in data set [4], 57.8 µM.

Regarding “(4-((4-Chlorophenyl)sulfonyl)piperazin-1-yl)(5-(4-fluorophenyl)imidazo[2,1-b]thiazol-2-yl)methanone [Compound 9dc]”, the Ki is greater than 100 µM in data set [1], greater than 100 µM in data set [2], greater than 100 µM in data set [3] and 98.2 µM in data set [4].

For “(5-(4-Fluorophenyl)imidazo[2,1-b]thiazol-2-yl)(4-(phenylsulfonyl)piperazin-1-yl)methanone [Compound 9dd]”, the Ki in data set [1], in data set [2], in data set [3] and in data set [4] was greater than 100 µM each time.

The term melting point denotes the temperature, or range, at which the solid turns liquid. In turn, `Cc1ccc(-c2cnc3sc(C(=O)N4CCN(S(=O)(=O)c5ccc(C(C)(C)C)cc5)CC4)cn23)cc1` [Compound 9bd, (4-((4-(Tert-butyl)phenyl)sulfonyl)piperazin-1-yl)(5-(p-tolyl)imidazo[2,1-b]thiazol-2-yl)methanone] had a melting point of 222 to 224 °C.

Turning to “(4-((4-Methoxyphenyl)sulfonyl)piperazin-1-yl)(5-(p-tolyl)imidazo[2,1-b]thiazol-2-yl)methanone [Compound 9ba]”, the Ki in data set [1], in data set [2], in data set [3] and in data set [4] was greater than 100 µM each time.
